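Tested at 5 concentrations; 48 h exposure; 96-well plates; endpoints linearly interpolated, else capped at highest concentration. TGI denotes the concentration required for complete inhibition of growth.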
Legend:
Experiment in all cases: NCI anticancer screen, dose series, 48 h
KM12 colon = test system: KM12 colon
MDA-MB-231 breast = test system: MDA-MB-231 breast
HL-60(TB) leukemia = test system: HL-60(TB) leukemia
SW-620 colon = test system: SW-620 colon
SK-MEL-5 melanoma = test system: SK-MEL-5 melanoma
UO-31 renal = test system: UO-31 renal
SF-295 CNS = test system: SF-295 CNS
OVCAR-4 ovarian = test system: OVCAR-4 ovarian
UACC-62 melanoma = test system: UACC-62 melanoma
CCRF-CEM leukemia = test system: CCRF-CEM leukemia
SNB-75 CNS = test system: SNB-75 CNS
SF-268 CNS = test system: SF-268 CNS
EKVX NSCLC = test system: EKVX NSCLC
K-562 leukemia = test system: K-562 leukemia
HOP-92 NSCLC = test system: HOP-92 NSCLC
MALME-3M melanoma = test system: MALME-3M melanoma
MDA-MB-435 = test system: MDA-MB-435
RXF 393 renal = test system: RXF 393 renal
ACHN renal = test system: ACHN renal
A498 renal = test system: A498 renal
OVCAR-8 ovarian = test system: OVCAR-8 ovarian
HCT-15 colon = test system: HCT-15 colon
786-0 renal = test system: 786-0 renal
U251 CNS = test system: U251 CNS
RPMI-8226 leukemia = test system: RPMI-8226 leukemia
SK-MEL-28 melanoma = test system: SK-MEL-28 melanoma
SN12C renal = test system: SN12C renal
IGROV1 ovarian = test system: IGROV1 ovarian
A549 NSCLC = test system: A549 NSCLC
NCI-H522 lung = test system: NCI-H522 lung
HT29 colon = test system: HT29 colon
HOP-62 NSCLC = test system: HOP-62 NSCLC
SNB-19 CNS = test system: SNB-19 CNS
NCI-H460 lung = test system: NCI-H460 lung
PC-3 prostate = test system: PC-3 prostate
BT-549 breast = test system: BT-549 breast
LOX IMVI melanoma = test system: LOX IMVI melanoma
CAKI-1 renal = test system: CAKI-1 renal
M14 melanoma = test system: M14 melanoma
DU-145 prostate = test system: DU-145 prostate
NCI-H23 lung = test system: NCI-H23 lung
SK-OV-3 ovarian = test system: SK-OV-3 ovarian
OVCAR-5 ovarian = test system: OVCAR-5 ovarian
NCI/ADR-RES ovarian = test system: NCI/ADR-RES ovarian
MOLT-4 leukemia = test system: MOLT-4 leukemia
T-47D breast = test system: T-47D breast
NCI-H226 lung = test system: NCI-H226 lung
SK-MEL-2 melanoma = test system: SK-MEL-2 melanoma
COLO 205 colon = test system: COLO 205 colon
SR leukemia = test system: SR leukemia
HS 578T breast = test system: HS 578T breast
SF-539 CNS = test system: SF-539 CNS
UACC-257 melanoma = test system: UACC-257 melanoma
MDA-N = test system: MDA-N
TK-10 renal = test system: TK-10 renal
OVCAR-3 ovarian = test system: OVCAR-3 ovarian
HCT-116 colon = test system: HCT-116 colon
MCF7 breast = test system: MCF7 breast

Cc1cc(Nc2ccc(N=Nc3ccc(O)c4ncccc34)cc2)nc(C)n1
TGI (KM12 colon): 33.3 µM | TGI (MDA-MB-231 breast): 73.7 µM | TGI (HL-60(TB) leukemia): 16.5 µM | TGI (SW-620 colon): > 66.5 µM | TGI (SK-MEL-5 melanoma): 26.3 µM | TGI (UO-31 renal): 36.5 µM | TGI (SF-295 CNS): > 80.4 µM | TGI (OVCAR-4 ovarian): 71.7 µM | TGI (UACC-62 melanoma): 24.6 µM | TGI (CCRF-CEM leukemia): 7.22 µM | TGI (SNB-75 CNS): 43.6 µM | TGI (SF-268 CNS): > 51.9 µM | TGI (EKVX NSCLC): > 79.3 µM | TGI (K-562 leukemia): 39.1 µM | TGI (HOP-92 NSCLC): 46.7 µM | TGI (MALME-3M melanoma): 44.6 µM | TGI (MDA-MB-435): 29.6 µM | TGI (RXF 393 renal): 34.6 µM | TGI (ACHN renal): > 77.9 µM | TGI (A498 renal): 46.1 µM | TGI (OVCAR-8 ovarian): 48.3 µM | TGI (HCT-15 colon): 36 µM | TGI (786-0 renal): 54.2 µM | TGI (U251 CNS): 33.4 µM | TGI (RPMI-8226 leukemia): 32.5 µM | TGI (SK-MEL-28 melanoma): > 68.7 µM | TGI (SN12C renal): > 88.2 µM | TGI (IGROV1 ovarian): 32 µM | TGI (A549 NSCLC): 38.3 µM | TGI (NCI-H522 lung): 55 µM | TGI (HT29 colon): > 75.2 µM | TGI (HOP-62 NSCLC): > 69.6 µM | TGI (SNB-19 CNS): > 100 µM | TGI (NCI-H460 lung): 38 µM | TGI (PC-3 prostate): > 69.9 µM | TGI (BT-549 breast): > 84.4 µM | TGI (LOX IMVI melanoma): 43.8 µM | TGI (CAKI-1 renal): 71 µM | TGI (M14 melanoma): 36.1 µM | TGI (DU-145 prostate): 69.7 µM | TGI (NCI-H23 lung): > 54.2 µM | TGI (SK-OV-3 ovarian): > 72.7 µM | TGI (OVCAR-5 ovarian): > 87.9 µM | TGI (NCI/ADR-RES ovarian): 61 µM | TGI (MOLT-4 leukemia): 48.3 µM | TGI (T-47D breast): 35.6 µM | TGI (NCI-H226 lung): 44.1 µM | TGI (SK-MEL-2 melanoma): 34.4 µM | TGI (COLO 205 colon): 40.4 µM | TGI (SR leukemia): > 100 µM | TGI (HS 578T breast): > 59.4 µM | TGI (SF-539 CNS): 20.6 µM | TGI (UACC-257 melanoma): 43.8 µM | TGI (MDA-N): 42.8 µM | TGI (TK-10 renal): 50.2 µM | TGI (OVCAR-3 ovarian): > 29.5 µM | TGI (HCT-116 colon): 44.6 µM | TGI (MCF7 breast): 52.2 µM

Cc1nccn1S(=O)(=O)c1ccc(Br)cc1Br
TGI (KM12 colon): 88.7 µM | TGI (MDA-MB-231 breast): 48.5 µM | TGI (HL-60(TB) leukemia): 51.5 µM | TGI (SW-620 colon): > 100 µM | TGI (SK-MEL-5 melanoma): 43.9 µM | TGI (UO-31 renal): 68.7 µM | TGI (SF-295 CNS): 93.1 µM | TGI (OVCAR-4 ovarian): > 100 µM | TGI (UACC-62 melanoma): > 100 µM | TGI (CCRF-CEM leukemia): 98.3 µM | TGI (SNB-75 CNS): 57.9 µM | TGI (SF-268 CNS): > 100 µM | TGI (EKVX NSCLC): 96.8 µM | TGI (K-562 leukemia): > 100 µM | TGI (HOP-92 NSCLC): 75.3 µM | TGI (MALME-3M melanoma): > 100 µM | TGI (MDA-MB-435): 46 µM | TGI (RXF 393 renal): 76.3 µM | TGI (ACHN renal): > 100 µM | TGI (A498 renal): > 100 µM | TGI (OVCAR-8 ovarian): > 100 µM | TGI (HCT-15 colon): > 100 µM | TGI (786-0 renal): > 100 µM | TGI (U251 CNS): > 100 µM | TGI (RPMI-8226 leukemia): 47.4 µM | TGI (SK-MEL-28 melanoma): > 100 µM | TGI (SN12C renal): > 100 µM | TGI (IGROV1 ovarian): > 100 µM | TGI (A549 NSCLC): > 100 µM | TGI (NCI-H522 lung): 86.9 µM | TGI (HT29 colon): > 100 µM | TGI (SNB-19 CNS): 90.3 µM | TGI (NCI-H460 lung): > 100 µM | TGI (PC-3 prostate): > 100 µM | TGI (BT-549 breast): > 100 µM | TGI (LOX IMVI melanoma): > 100 µM | TGI (CAKI-1 renal): > 100 µM | TGI (M14 melanoma): 39.7 µM | TGI (DU-145 prostate): > 100 µM | TGI (NCI-H23 lung): > 100 µM | TGI (SK-OV-3 ovarian): > 100 µM | TGI (OVCAR-5 ovarian): > 100 µM | TGI (NCI/ADR-RES ovarian): > 100 µM | TGI (MOLT-4 leukemia): 96.1 µM | TGI (T-47D breast): > 100 µM | TGI (SK-MEL-2 melanoma): 55 µM | TGI (COLO 205 colon): 33.4 µM | TGI (SR leukemia): 78.3 µM | TGI (HS 578T breast): > 100 µM | TGI (SF-539 CNS): 41.4 µM | TGI (UACC-257 melanoma): > 100 µM | TGI (MDA-N): 50.1 µM | TGI (TK-10 renal): > 100 µM | TGI (OVCAR-3 ovarian): 55.4 µM | TGI (HCT-116 colon): > 100 µM | TGI (MCF7 breast): > 100 µM

Nc1ccc(-c2nc3cc(F)ccc3s2)cc1I
TGI (KM12 colon): > 100 µM | TGI (MDA-MB-231 breast): 30.4 µM | TGI (HL-60(TB) leukemia): > 100 µM | TGI (SW-620 colon): > 100 µM | TGI (SK-MEL-5 melanoma): > 70.4 µM | TGI (UO-31 renal): > 65.2 µM | TGI (SF-295 CNS): > 56.6 µM | TGI (OVCAR-4 ovarian): > 100 µM | TGI (UACC-62 melanoma): 85.8 µM | TGI (CCRF-CEM leukemia): > 100 µM | TGI (SNB-75 CNS): 33.8 µM | TGI (SF-268 CNS): 35.2 µM | TGI (EKVX NSCLC): 43.9 µM | TGI (K-562 leukemia): > 100 µM | TGI (HOP-92 NSCLC): 39.3 µM | TGI (MALME-3M melanoma): 72.9 µM | TGI (MDA-MB-435): > 100 µM | TGI (RXF 393 renal): 31.3 µM | TGI (ACHN renal): 24.6 µM | TGI (A498 renal): 31.2 µM | TGI (OVCAR-8 ovarian): 42.4 µM | TGI (HCT-15 colon): > 66.5 µM | TGI (786-0 renal): 32 µM | TGI (U251 CNS): 26.8 µM | TGI (RPMI-8226 leukemia): > 100 µM | TGI (SK-MEL-28 melanoma): > 100 µM | TGI (SN12C renal): > 69.8 µM | TGI (IGROV1 ovarian): 22.3 µM | TGI (A549 NSCLC): > 100 µM | TGI (NCI-H522 lung): 33.2 µM | TGI (HT29 colon): > 100 µM | TGI (HOP-62 NSCLC): 33.6 µM | TGI (SNB-19 CNS): 54.9 µM | TGI (NCI-H460 lung): 23.7 µM | TGI (PC-3 prostate): > 100 µM | TGI (BT-549 breast): 29.9 µM | TGI (LOX IMVI melanoma): > 100 µM | TGI (CAKI-1 renal): 72.5 µM | TGI (M14 melanoma): > 100 µM | TGI (DU-145 prostate): > 100 µM | TGI (NCI-H23 lung): 18.9 µM | TGI (SK-OV-3 ovarian): 32.9 µM | TGI (OVCAR-5 ovarian): 43 µM | TGI (NCI/ADR-RES ovarian): 54.3 µM | TGI (MOLT-4 leukemia): > 100 µM | TGI (T-47D breast): 97.2 µM | TGI (NCI-H226 lung): 21 µM | TGI (SK-MEL-2 melanoma): 50.6 µM | TGI (COLO 205 colon): > 100 µM | TGI (SR leukemia): > 59.5 µM | TGI (HS 578T breast): > 75.1 µM | TGI (SF-539 CNS): 29.8 µM | TGI (UACC-257 melanoma): > 100 µM | TGI (MDA-N): > 100 µM | TGI (TK-10 renal): 21.1 µM | TGI (OVCAR-3 ovarian): > 37.9 µM | TGI (HCT-116 colon): 53 µM | TGI (MCF7 breast): 3.91 µM
